This note sets out measurements from ChEMBL document CHEMBL5465560, “Selectivity Literature for EUbOPEN Chemogenomic Library” (2024).

In test [1] the target is T1, Serine/threonine-protein kinase BRSK2 (Homo sapiens) (UniProt Q8IWQ3).
T1 sequence (whole entry): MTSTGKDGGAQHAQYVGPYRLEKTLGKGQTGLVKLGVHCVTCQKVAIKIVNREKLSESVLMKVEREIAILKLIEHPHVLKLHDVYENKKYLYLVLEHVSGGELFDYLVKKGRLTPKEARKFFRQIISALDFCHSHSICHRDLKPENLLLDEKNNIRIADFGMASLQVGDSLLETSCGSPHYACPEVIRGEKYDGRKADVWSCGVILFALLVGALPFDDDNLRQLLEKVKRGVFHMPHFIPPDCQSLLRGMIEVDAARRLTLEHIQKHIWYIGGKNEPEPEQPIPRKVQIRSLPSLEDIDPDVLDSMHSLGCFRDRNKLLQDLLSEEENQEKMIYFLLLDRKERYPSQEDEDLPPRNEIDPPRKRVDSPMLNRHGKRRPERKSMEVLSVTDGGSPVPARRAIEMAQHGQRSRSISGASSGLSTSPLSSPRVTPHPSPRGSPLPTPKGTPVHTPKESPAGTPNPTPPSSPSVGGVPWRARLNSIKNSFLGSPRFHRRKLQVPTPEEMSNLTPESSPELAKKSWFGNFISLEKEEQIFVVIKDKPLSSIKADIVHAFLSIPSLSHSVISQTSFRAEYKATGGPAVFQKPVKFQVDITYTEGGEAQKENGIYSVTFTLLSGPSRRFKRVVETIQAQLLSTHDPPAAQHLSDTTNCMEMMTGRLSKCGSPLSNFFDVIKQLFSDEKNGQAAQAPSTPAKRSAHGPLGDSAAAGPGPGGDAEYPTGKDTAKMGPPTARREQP
As to the kind of experiment: Selectivity interaction (KinomeScan (DiscoverX)) EUB0001049a BRSK2. As to conditions: at 1 µM.

Test [2] addresses T2, Interleukin-1 receptor-associated kinase 3 (Homo sapiens) (UniProt Q9Y616).
T2 sequence (whole entry): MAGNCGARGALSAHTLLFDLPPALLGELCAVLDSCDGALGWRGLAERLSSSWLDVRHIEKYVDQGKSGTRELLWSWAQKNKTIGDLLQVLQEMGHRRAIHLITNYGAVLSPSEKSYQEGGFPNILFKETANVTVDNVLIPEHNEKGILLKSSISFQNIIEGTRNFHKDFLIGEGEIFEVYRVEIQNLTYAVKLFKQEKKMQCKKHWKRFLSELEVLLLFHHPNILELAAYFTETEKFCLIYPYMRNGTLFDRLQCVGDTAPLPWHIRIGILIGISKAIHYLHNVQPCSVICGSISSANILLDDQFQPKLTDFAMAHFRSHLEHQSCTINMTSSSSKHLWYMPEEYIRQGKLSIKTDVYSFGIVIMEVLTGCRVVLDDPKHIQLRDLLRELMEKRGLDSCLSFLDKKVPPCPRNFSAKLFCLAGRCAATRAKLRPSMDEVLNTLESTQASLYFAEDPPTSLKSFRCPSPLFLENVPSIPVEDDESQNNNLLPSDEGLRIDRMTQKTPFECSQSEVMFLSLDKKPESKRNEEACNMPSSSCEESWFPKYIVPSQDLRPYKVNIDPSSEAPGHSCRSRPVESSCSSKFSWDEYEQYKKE
As to the kind of experiment: Selectivity interaction (KinomeScan (DiscoverX)) EUB0001550a IRAK3. Particulars: at 1 µM.

Test [3] addresses T3, Mitogen-activated protein kinase 13 (Homo sapiens) (UniProt O15264).
T3 sequence (whole entry): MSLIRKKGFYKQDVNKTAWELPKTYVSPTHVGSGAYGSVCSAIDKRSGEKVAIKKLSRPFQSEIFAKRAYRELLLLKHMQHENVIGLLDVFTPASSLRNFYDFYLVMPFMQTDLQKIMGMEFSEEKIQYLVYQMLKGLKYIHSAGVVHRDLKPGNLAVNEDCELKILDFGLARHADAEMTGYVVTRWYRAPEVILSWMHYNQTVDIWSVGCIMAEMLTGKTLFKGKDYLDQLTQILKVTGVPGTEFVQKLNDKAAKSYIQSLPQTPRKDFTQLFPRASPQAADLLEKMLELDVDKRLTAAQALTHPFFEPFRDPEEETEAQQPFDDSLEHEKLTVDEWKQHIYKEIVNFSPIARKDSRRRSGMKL
As to the kind of experiment: Selectivity interaction (ActivX KiNativ screen (ex vivo kinase selectivity in human PBMCs)) EUB0001619a MAPK13. It is filed as cell-based. Particulars: PBMC, at 1 µM.

Test [4] relates to Tyrosine-protein kinase ABL1 (Homo sapiens), P00519 [Q252H]. Description: Selectivity interaction (KinomeScan (DiscoverX)) EUB0000618a ABL1. As to conditions: at 10 µM.

`COc1cc(Nc2nc(C)cc(-c3cnn4nc(OC)ccc34)n2)cc(C(F)(F)F)c1`: the % of control in test [1] was 94%.

As to `CN(C)CC#Cc1ccc2[nH]c3c(c2c1)-c1nc(N)ncc1CCC3`, in test [2], the % of control worked out at 9.2%. Turning to `N#Cc1cccc(-c2c[nH]c3ncnc(N4CCOCC4)c23)c1`, the % of inhibition in test [3] is -6%. The compound `O[C@H]1CC[C@H](Nc2ncc3nc(Nc4c(F)cc(F)cc4F)n([C@H]4CCOC4)c3n2)CC1` showed a % of control in test [4] of 36%.
